# Results reported in ChEMBL document CHEMBL1201862, “PubChem BioAssay data set” (2004).
# The source made the active and inactive calls.
# Experiments:
# [1] = molecular target: T1, DNA repair and recombination protein RAD54-like (Homo sapiens, UniProt Q92698); test: inhibitors of human RAD54 branch migration, confirmation, biochemical, fluorescence, cherry-picked samples, dose series (AID 651657); type: functional
# T1 sequence (Q92698 whole entry): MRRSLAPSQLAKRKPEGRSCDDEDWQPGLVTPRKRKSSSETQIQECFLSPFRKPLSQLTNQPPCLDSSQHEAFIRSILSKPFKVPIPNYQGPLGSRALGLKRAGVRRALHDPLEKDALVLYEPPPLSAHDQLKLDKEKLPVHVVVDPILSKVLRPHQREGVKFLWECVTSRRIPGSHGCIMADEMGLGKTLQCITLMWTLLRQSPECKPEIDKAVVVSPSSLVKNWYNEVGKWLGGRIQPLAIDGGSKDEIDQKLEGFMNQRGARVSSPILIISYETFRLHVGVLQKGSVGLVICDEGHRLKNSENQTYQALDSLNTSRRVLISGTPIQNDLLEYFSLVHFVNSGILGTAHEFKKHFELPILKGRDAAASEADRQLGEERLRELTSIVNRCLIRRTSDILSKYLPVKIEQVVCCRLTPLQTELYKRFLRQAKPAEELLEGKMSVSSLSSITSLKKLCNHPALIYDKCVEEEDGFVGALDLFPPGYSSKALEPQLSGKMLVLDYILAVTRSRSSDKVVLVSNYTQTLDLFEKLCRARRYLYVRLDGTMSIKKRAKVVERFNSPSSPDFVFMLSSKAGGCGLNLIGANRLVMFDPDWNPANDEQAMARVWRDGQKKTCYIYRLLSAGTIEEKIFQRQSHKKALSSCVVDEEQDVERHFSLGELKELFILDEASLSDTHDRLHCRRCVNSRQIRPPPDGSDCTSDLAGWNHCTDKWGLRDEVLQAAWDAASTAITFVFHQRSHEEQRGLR
# [2] = molecular target: T2, DNA repair protein RAD52 homolog (Homo sapiens, UniProt P43351); type: functional, biochemical
# T2 sequence (P43351 whole entry): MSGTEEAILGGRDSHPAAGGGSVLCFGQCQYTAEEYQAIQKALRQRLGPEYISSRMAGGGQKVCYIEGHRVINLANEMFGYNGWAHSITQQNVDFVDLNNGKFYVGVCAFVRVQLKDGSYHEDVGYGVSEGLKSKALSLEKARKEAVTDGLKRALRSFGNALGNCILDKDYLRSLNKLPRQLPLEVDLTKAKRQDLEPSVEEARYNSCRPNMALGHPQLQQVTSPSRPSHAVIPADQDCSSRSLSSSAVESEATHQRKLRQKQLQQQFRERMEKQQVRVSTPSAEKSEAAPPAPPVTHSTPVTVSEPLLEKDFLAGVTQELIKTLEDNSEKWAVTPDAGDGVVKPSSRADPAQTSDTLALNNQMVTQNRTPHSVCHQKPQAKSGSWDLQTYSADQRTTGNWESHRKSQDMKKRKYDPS
# Vero = Vero cell cytotoxicity, cytotoxicity control for flavivirus capping enzyme inhibitors (AID 588742); type: functional; settings: Chlorocebus sabaeus
# [3] = human group III sPLA2 inhibitors, dose response, biochemical, QFRET, IC50 (AID 743457);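 note: green fluorescence rise as the enzyme cleaves BODIPY PC-A2 in liposomes; potency for inhibition of the enzyme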
# [4] = molecular target: T3, Probable nicotinate-nucleotide adenylyltransferase (Staphylococcus aureus (strain N315), UniProt P65502); type: functional, Staphylococcus aureus subsp. aureus N315; settings: read-out: IC50_Mean;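 for IC50 Mean: confirmatory dose-response retesting of NadD inhibitor hits first found in an ultra-high-throughput screen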
# Streptococcus = test: Group A Streptococcus viability loss, dose response, counter-screen for streptokinase expression inhibitor project, luminescence, BacTiterGlo (AID 1915); type: functional, organism-based;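 note: potency for reduction of bacterial viability or growth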
# [5] = molecular target: T3, Probable nicotinate-nucleotide adenylyltransferase; type: functional, Staphylococcus aureus subsp. aureus N315
# Streptokinase A = molecular target: T4, Streptokinase A (Streptococcus pyogenes serotype M1, UniProt P10520); test: S. pyogenes streptokinase expression inhibitors, potency, dose response, plasminogen activation absorbance, OD405 (AID 1914); type: functional, Streptococcus pyogenes M1 GAS;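 note: secreted streptokinase activity via plasminogen activation per viability signal from cell pellet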
# T4 sequence (P10520 whole entry): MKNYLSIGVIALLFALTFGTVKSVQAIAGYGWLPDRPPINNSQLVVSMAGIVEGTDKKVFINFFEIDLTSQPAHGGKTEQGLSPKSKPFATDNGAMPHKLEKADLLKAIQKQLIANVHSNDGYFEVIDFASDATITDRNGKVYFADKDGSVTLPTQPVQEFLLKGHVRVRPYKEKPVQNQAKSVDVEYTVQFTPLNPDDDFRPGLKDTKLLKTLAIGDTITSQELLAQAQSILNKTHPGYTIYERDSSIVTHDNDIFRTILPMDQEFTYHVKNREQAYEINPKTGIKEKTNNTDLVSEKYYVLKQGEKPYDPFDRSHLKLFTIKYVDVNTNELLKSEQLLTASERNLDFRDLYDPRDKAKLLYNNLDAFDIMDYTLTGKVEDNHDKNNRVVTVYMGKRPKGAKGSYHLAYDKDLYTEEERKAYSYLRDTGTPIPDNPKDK
# [6] = system: Streptococcus sp. 'group A'; test: growth inhibition of control SK(-) GAS strain, dose response, counter-screen for streptokinase expression inhibitor project, luminescence, kanamycin, BacTiterGlo, confirmation (AID 1900); type: functional, organism-based
# [7] = molecular target: T5, Long-chain-fatty-acid--AMP ligase FadD28 (Mycobacterium tuberculosis, UniProt P9WQ59); test: Fluorescence polarization aasay to screen for inhibitors that compete for the binding of FadD28 to a bisubstrate Measured in Biochemical System Using Plate Reader - 2147-01_Inhibitor_Dose_CherryPick_Activity.; type: functional, Mycobacterium tuberculosis H37Rv
# T5 sequence (P9WQ59 whole entry): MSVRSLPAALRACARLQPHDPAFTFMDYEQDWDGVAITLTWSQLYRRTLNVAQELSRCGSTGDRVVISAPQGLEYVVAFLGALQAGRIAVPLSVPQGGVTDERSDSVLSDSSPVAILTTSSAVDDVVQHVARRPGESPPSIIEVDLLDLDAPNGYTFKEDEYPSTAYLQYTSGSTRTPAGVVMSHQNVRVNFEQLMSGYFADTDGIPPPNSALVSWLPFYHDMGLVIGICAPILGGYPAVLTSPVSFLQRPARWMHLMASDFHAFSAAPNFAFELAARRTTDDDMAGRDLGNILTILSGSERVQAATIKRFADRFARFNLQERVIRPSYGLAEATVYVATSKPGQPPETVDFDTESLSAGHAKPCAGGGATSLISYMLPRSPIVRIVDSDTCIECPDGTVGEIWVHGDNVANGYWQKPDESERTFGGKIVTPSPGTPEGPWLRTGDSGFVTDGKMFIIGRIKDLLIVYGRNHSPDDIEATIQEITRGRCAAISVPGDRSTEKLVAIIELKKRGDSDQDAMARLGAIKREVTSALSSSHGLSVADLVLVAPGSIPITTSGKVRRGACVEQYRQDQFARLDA
# [8] = cytotoxicity toward DRD oncogenic fibroblasts, dose response, cell-based, non-viral oncogenic, luminescence (AID 1934); type: functional; settings: Homo sapiens
# [9] = molecular target: DNA dC->dU-editing enzyme APOBEC-3A (Homo sapiens, UniProt P31941); test: Dose Response confirmation of small molecule APOBEC3A DNA Deaminase Inhibitors via a fluorescence-based single-stranded DNA deaminase assay. [Related pubchem assays (depositor defined):AID493011, AID493024]; type: functional
# [10] = Shn3 3'UTR reporter inhibitors, dose response, cell-based, Clone20 osteoblasts, firefly luciferase, cherry-picked (AID 624132); type: functional;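 note: firefly luciferase luminescence from reporter carrying the Shn3 3'UTR in osteoblasts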
# BJ [11] = test: cytotoxicity toward BJ-TERT fibroblasts, dose response, cell-based, RAS-independent, luminescence (AID 1933); type: functional; settings: Homo sapiens
# [12] = control 3'UTR Renilla luciferase suppression, dose response, counter-screen for Shn3 inhibitor project, cell-based, Clone20-Shn3RL, cherry-picked (AID 624133); type: functional
# INS1 = test: beta cell apoptosis inhibitors, cytokine rescue, dose response, luminescence, retest (AID 449756); type: functional, cell-based; settings: Rattus norvegicus;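 note: cell death triggered by IL-1 beta plus TNF-alpha plus IFN-gamma mixture; protective hits raise ATP signal compared with cytokine alone wells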
# BJ [13] = test: cytotoxicity toward BJ-TERT-LT-ST fibroblasts, dose response, cell-based, RAS-independent, luminescence (AID 1935); type: functional; settings: Homo sapiens;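 note: BJ fibroblasts immortalized with TERT plus LT and ST oncogenes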
# BJ [14] = test: cells; type: functional, cell-based; settings: Homo sapiens
# [15] = molecular target: T6, Short transient receptor potential channel 4 (Mus musculus, UniProt Q9QUQ5); test: mouse TRPC4 channel inhibitors, dose response, cell-based, HEK293 TRPC4/mu-opioid, Fluo-4 calcium (AID 434942); type: functional;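 note: potency of inhibitors blocking the TRPC4 calcium response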
# T6 sequence (Q9QUQ5 whole entry): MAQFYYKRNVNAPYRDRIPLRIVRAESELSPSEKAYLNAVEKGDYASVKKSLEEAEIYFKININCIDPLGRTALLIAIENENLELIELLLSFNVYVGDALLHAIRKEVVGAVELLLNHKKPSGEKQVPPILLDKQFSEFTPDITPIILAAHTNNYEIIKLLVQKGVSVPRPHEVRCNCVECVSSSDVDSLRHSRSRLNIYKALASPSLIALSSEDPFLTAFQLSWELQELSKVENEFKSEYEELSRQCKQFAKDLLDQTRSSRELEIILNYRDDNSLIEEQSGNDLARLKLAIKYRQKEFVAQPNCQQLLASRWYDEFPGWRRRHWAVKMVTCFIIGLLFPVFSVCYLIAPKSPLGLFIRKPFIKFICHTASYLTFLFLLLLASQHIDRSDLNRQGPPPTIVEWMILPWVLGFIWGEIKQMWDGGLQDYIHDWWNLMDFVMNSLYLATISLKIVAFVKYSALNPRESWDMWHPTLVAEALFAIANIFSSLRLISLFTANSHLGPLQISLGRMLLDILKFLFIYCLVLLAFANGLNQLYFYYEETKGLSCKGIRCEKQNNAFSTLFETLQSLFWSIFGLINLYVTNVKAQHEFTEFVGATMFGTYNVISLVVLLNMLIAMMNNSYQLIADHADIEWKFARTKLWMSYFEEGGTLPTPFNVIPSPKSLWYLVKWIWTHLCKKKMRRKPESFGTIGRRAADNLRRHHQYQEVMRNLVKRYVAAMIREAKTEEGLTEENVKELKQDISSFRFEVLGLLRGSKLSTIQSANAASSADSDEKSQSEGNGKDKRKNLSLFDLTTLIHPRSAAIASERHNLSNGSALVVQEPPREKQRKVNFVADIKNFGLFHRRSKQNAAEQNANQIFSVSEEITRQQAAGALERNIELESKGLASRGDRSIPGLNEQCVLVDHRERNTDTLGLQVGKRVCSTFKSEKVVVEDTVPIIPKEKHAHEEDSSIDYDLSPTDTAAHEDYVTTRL
# BJ [16] = test: cytotoxicity toward Ras-transformed BJeLR fibroblasts, dose response, cell-based, alamar blue fluorescence, cherrypicked samples (AID 2631); type: functional; settings: Homo sapiens;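 note: confirmatory dose-response assay in RAS-dependent BJ fibroblasts engineered with TERT, LT and ST, with cytotoxicity read by fluorescence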
# [17] = molecular target: DNA dC->dU-editing enzyme APOBEC-3G (Homo sapiens, UniProt Q9HC16); type: functional;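 note: Dose-response counterscreen measuring inhibition of APOBEC3G DNA deaminase activity, run while confirming APOBEC3A inhibitors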
# [18] = HepG2 cell cytotoxicity, dose response, cytotoxicity control for Shn3 inhibitor project, CellTiter-Glo, cherry-picked (AID 624134); type: functional, cell-based
# [19] = molecular target: T7, Small ubiquitin-related modifier 1 (Homo sapiens, UniProt P63165); test: inhibitors of SUMO1 peptide binding, dose response, biochemical, fluorescence polarization, uHTS hits (AID 624382); type: functional; settings: read-out: IC50_Mean
# [20] = molecular target: 72 kDa type IV collagenase (Homo sapiens, UniProt P08253); test: Dose Response validation of uHTS RPN11 inhibitor hits using a MMP-2 Fluorescence assay.; type: functional
# [21] = molecular target: 26S proteasome non-ATPase regulatory subunit 14 (Homo sapiens, UniProt O00487); test: inhibition of proteasome subunit RPN11 – biochemical, fluorescence polarization, uHTS hits, confirmation (AID 602368); type: functional
# Prothrombin = Prothrombin (Bos taurus, UniProt P00735); test: thrombin inhibition, dose response, biochemical, fluorescence polarization, uHTS hits (AID 602369); type: functional
# [22] = molecular target: T7, Small ubiquitin-related modifier 1; test: inhibitors of SUMO1 partner interactions, dose response, biochemical, FRET (AID 624383); type: functional; settings: read-out: IC50_Mean
# T7 sequence (P63165 whole entry): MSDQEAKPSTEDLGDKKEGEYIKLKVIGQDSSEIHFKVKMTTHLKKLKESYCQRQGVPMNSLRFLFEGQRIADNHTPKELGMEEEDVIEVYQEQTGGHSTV
# T3 sequence (P65502 whole entry): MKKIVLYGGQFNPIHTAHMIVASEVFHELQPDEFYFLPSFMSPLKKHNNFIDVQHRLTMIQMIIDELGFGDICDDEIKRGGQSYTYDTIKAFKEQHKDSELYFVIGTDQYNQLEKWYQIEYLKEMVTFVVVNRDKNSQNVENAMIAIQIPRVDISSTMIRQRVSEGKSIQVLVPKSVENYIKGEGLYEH
# Chain of DNA dC->dU-editing enzyme APOBEC-3A (P31941 whole entry): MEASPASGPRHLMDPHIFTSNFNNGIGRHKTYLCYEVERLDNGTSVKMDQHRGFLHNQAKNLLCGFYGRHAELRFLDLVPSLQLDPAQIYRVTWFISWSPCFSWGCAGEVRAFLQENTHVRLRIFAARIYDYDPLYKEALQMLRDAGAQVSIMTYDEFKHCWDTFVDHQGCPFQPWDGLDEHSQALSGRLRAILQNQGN
# Chain of DNA dC->dU-editing enzyme APOBEC-3G (Q9HC16 whole entry): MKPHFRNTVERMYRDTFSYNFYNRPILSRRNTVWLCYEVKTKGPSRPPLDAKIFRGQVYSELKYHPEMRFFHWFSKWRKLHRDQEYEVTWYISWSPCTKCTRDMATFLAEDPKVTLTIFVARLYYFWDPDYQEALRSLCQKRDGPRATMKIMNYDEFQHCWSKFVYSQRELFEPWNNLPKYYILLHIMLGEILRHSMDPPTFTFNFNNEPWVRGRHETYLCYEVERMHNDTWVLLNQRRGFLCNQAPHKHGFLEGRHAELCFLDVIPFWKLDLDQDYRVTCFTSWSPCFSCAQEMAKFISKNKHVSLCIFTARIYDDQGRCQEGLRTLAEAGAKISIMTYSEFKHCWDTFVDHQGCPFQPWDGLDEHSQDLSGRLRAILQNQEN
# Chain of 72 kDa type IV collagenase (P08253 whole entry): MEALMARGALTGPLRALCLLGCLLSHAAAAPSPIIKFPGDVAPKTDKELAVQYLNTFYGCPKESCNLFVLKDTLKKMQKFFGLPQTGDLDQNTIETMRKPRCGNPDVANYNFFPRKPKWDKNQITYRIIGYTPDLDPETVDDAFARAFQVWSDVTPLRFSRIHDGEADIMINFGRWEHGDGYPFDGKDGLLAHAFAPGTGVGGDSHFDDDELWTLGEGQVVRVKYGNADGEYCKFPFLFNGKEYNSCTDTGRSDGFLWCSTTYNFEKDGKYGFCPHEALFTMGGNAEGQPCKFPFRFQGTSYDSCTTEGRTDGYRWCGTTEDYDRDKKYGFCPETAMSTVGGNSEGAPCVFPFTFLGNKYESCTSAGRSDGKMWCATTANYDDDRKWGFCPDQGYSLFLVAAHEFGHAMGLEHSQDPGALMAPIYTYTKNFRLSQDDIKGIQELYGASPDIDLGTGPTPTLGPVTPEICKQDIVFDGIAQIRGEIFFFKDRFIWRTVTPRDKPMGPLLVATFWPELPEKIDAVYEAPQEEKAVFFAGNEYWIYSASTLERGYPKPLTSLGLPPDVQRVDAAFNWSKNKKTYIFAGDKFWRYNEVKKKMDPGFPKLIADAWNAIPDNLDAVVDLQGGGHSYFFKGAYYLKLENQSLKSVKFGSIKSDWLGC
# Chain of 26S proteasome non-ATPase regulatory subunit 14 (O00487 whole entry): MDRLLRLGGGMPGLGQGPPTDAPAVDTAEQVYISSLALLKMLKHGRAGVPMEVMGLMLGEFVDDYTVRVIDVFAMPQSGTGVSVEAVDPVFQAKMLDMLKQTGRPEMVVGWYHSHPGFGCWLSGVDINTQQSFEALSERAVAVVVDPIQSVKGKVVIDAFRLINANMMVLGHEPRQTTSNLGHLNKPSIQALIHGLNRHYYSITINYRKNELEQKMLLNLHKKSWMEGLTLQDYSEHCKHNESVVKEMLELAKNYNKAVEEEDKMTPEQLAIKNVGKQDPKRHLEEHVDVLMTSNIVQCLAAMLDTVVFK
compound,measurement,setting,value
CN1CCC[C@H]1CCNc1ccc2c(=O)c3ccccc3n(C)c2c1,AC50,[1],5.81 µM (active)
same,AC50,[2],2.17 µM (active)
same,CC50,Vero,30.7 µM (active)
COc1ccc(N=Nc2nc(-c3ccccc3)c(-c3ccccc3)[nH]2)cc1,IC50,[3],> 122 µM (inactive)
Cc1cc(C)c2nc(NNC(=O)c3cc(=O)c4ccccc4o3)sc2c1,IC50,[4],28.2 µM (active)
same,EC50,Streptococcus,7.16 µM (active)
same,IC50,[5],4.41 µM (active)
same,EC50,Streptokinase A,> 150 µM (not active)
same,EC50,[6],0.296 µM (active)
CCc1cccc2c(C(=O)CN3C(=O)C(=O)N(C4CCCC4)C3=O)c[nH]c12,AC50,[7],32.3 µM (active)
CN(C)CCCNc1c2ccccc2nc2ccccc12,AC50,[1],0.814 µM (active)
same,AC50,[2],0.271 µM (active)
same,EC50,[8],4.72 µM (active)
same,IC50,[9],18 µM (active)
same,AC50,[10],3.22 µM (active)
same,EC50,BJ [11],1.92 µM (active)
same,AC50,[12],> 70 µM (inactive)
same,AC50,INS1,0.533 µM (active)
same,EC50,BJ [13],5.56 µM (active)
same,EC50,BJ [14],3.21 µM (active)
same,EC50,[15],1.33 µM (active)
same,EC50,BJ [16],0.454 µM (inconclusive)
same,IC50,[17],58 µM (active)
same,AC50,[18],7.82 µM (active)
CCCCCCCCCCCC1NC(N)=NC(CCCO)=C1C(=O)OC (stereo unspecified),IC50,[19],> 66.6 µM (inactive)
same,AC50,[2],7.72 µM (active)
same,IC50,[20],85.8 µM (active)
same,IC50,[21],19.9 µM (active)
same,IC50,Prothrombin,42.3 µM (active)
same,IC50,[22],10.1 µM (active)
CCN(CC)S(=O)(=O)c1cccc(C(=O)OCC(=O)c2ccc3c(c2)OCCO3)c1,AC50,[7],> 100 µM (inactive)
